Measurements taken from patent US12643867B2, “Compositions and uses thereof” (University of Virginia Patent Foundation, priority 2017, dated 2026).

How the values were obtained:
Assay in all cases: SILAC LC-MS ATP acyl phosphate probe competition, native kinases in HEK293T
Type in all cases: binding
[1] = target: T1, CHK2 (Serine/threonine-protein kinase Chk2) (Homo sapiens, UniProt O96017); conditions: for SILAC ratio, CHK2 probe-modified peptide: site Lys1, ATP 1 mM, Ketanserin, Ritanserin 100 μM, RF001 1 mM
T1 construct: measured against >50 native kinases quantified in HEK293T soluble proteomes; endogenous in cells; host or cells: HEK293T soluble proteome
T1 sequence (O96017 whole entry): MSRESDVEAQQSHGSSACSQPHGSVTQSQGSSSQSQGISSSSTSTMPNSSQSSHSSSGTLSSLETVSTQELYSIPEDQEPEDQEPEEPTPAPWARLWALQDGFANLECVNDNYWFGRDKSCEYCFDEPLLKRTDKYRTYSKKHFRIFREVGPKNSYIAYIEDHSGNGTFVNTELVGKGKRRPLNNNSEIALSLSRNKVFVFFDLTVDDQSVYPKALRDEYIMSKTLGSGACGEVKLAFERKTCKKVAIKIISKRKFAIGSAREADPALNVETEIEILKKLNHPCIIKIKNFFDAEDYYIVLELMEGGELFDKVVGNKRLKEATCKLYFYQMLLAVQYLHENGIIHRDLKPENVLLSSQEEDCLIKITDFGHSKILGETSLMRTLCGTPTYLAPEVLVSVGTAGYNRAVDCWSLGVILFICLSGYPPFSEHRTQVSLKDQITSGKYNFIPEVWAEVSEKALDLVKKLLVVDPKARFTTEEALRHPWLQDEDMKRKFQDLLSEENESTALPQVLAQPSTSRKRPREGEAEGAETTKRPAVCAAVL
In short: (§1)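 Light and heavy SILAC HEK293T proteomes (2 mg/ml in kinase buffer) were pre-treated with DMSO or compound (50× stock in DMSO) for 30 min at 25° C, then mixed 1:1, reduced, alkylated and digested with trypsin/Lys-C. Desthiobiotin-labelled peptides were avidin-enriched and analysed by LC-MS/MS on an Orbitrap, top-10 data-dependent acquisition.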

[2] = target: T2, PAN3 (PAB-dependent poly(A)-specific ribonuclease subunit) (Homo sapiens, UniProt Q58A45); conditions: site ATP; ATP 1 mM; Ketanserin, Ritanserin 100 μM; RF001 1 mM
T2 construct: Native kinases; endogenous in cells; host or cells: HEK293T soluble proteome
T2 sequence (Q58A45 1-887): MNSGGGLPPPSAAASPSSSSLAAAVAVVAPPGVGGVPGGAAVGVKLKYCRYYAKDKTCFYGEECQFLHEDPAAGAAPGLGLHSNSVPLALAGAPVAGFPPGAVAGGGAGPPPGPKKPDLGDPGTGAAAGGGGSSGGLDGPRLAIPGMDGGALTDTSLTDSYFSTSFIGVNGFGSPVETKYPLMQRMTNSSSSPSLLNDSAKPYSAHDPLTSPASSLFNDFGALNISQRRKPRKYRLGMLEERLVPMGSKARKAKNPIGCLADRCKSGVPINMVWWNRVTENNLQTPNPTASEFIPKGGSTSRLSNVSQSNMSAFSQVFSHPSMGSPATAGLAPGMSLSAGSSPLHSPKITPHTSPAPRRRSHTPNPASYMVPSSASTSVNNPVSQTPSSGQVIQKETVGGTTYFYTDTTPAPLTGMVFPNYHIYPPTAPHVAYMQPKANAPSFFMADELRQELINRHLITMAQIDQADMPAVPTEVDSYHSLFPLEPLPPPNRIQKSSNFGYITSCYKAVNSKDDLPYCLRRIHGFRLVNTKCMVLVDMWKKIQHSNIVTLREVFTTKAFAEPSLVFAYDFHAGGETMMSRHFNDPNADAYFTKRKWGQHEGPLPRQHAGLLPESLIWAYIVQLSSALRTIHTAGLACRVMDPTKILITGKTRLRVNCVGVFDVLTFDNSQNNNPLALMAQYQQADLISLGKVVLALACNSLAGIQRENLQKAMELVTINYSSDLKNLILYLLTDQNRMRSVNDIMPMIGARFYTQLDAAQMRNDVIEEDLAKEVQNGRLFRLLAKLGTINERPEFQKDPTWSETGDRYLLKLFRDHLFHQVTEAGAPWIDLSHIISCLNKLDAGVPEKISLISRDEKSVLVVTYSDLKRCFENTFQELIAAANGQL
In short: as §1

[3] = target: T3, KCC2D (Calcium/calmodulin-dependent protein kinase type II delta chain) (Homo sapiens, UniProt Q13557); conditions: site Lys1; ATP 1 mM; Ketanserin, Ritanserin 100 μM; RF001 1 mM
T3 construct: measured against >50 native kinases quantified in HEK293T soluble proteomes; endogenous in cells; host or cells: HEK293T soluble proteome
T3 sequence (Q13557 whole entry): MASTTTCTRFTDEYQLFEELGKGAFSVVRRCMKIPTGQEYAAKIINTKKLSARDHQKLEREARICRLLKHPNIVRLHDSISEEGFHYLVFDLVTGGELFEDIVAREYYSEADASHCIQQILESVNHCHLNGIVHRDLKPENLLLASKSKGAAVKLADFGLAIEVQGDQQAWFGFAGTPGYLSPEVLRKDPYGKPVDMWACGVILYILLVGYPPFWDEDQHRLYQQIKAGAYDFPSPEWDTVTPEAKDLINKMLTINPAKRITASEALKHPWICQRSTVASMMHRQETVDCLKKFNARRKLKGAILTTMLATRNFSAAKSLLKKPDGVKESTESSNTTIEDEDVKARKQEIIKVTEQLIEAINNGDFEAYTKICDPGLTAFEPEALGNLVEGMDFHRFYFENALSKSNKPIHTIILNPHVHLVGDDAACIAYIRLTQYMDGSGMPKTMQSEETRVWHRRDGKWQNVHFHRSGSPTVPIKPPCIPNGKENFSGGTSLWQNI
In short: as §1

[4] = target: T4, BRAF (B-Raf proto-oncogene serine/threonine-protein kinase) (Homo sapiens, UniProt P15056); conditions: site Lys2; ATP 1 mM; Ketanserin, Ritanserin 100 μM; RF001 1 mM
T4 construct: measured against >50 native kinases quantified in HEK293T soluble proteomes; endogenous in cells; host or cells: HEK293T soluble proteome
T4 sequence (P15056 whole entry): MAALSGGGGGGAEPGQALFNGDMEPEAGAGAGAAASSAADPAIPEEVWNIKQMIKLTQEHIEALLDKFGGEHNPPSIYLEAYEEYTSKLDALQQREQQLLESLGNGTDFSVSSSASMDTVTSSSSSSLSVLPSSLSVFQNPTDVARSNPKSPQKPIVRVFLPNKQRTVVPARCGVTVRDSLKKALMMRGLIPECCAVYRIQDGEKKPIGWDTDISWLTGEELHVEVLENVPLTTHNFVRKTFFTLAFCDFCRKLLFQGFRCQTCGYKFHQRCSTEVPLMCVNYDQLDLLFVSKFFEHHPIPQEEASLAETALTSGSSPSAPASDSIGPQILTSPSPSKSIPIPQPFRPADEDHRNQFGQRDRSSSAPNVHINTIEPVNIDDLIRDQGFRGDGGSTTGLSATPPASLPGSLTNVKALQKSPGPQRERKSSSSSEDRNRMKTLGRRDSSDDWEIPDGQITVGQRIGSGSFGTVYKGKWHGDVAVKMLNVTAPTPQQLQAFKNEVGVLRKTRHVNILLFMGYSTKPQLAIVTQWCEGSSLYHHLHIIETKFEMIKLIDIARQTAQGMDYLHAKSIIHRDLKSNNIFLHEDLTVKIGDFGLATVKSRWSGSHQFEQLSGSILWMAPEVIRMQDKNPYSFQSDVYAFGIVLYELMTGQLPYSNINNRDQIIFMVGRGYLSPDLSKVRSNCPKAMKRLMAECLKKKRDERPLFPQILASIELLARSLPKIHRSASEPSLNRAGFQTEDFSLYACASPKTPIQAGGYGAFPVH
In short: as §1

SILAC ratio, CHK2 probe-modified peptide [1]	SILAC ratio, PAN3 probe-modified peptide [2]	SILAC ratio, KCC2D probe-modified peptide [3]	SILAC ratio, BRAF probe-modified peptide [4]	CHK2 ATP acyl-phosphate labeling response (words, FIG. 20) ([1]; H82 and HEK293T, 1 mM RF001)	Compound
0.2	1.3	1.2	1.1	activator of CHK2	Fc1ccc(C(=C2CCNCC2)c2ccc(F)cc2)cc1 [RF001, 4-(Bis(4-fluorophenyl)methylene) piperidine]
1.6	1.3	1.5	1.6	–	O=C(c1ccc(F)cc1)C1CCN(CCn2c(=O)[nH]c3ccccc3c2=O)CC1 [Ketanserin]

Compound	SILAC ratio, CHK2 probe-modified peptide [1]	SILAC ratio, PAN3 probe-modified peptide [2]	SILAC ratio, KCC2D probe-modified peptide [3]	SILAC ratio, BRAF probe-modified peptide [4]	CHK2 ATP acyl-phosphate labeling response (words, FIG. 20) ([1]; H82 and HEK293T, 1 mM RF001)
Cc1nc2sccn2c(=O)c1CCN1CCC(=C(c2ccc(F)cc2)c2ccc(F)cc2)CC1 [Ritanserin]	2.2	1.8	2.3	1.8	–
